Reference: DBAASP
In brackets after ≈: the same amount, converted by molar mass.

Experiments:
Assay in all cases: ≥ marks a high value that may be exact or a test limit, other limits are often not marked, values filed in µg/mL are converted to µM
[1] = tested on: Staphylococcus aureus KCTC 1916
[2] = tested on: Staphylococcus aureus CCARM 3126
[3] = tested on: Acinetobacter baumannii CCARM 12036
[4] = tested on: Escherichia coli KCTC 1682
[5] = tested on: Staphylococcus aureus KCTC 3881
[6] = tested on: Pseudomonas aeruginosa CCARM 2095
[7] = tested on: Escherichia coli CCARM 1229
[8] = tested on: Acinetobacter baumannii CCARM 12037
[9] = tested on: Staphylococcus aureus CCARM 3108
[10] = tested on: Staphylococcus aureus CCARM 3090
[11] = tested on: Pseudomonas aeruginosa CCARM 2003
[12] = tested on: Pseudomonas aeruginosa KCTC 1637
[13] = tested on: Pseudomonas aeruginosa KCTC 2513
[14] = tested on: Staphylococcus aureus CCARM 3114
[15] = tested on: Acinetobacter baumannii CCARM 12005
[16] = tested on: Staphylococcus aureus KCTC 1621
[17] = tested on: Pseudomonas aeruginosa CCARM 2163
[18] = tested on: Escherichia coli KCTC 2571
[19] = tested on: Bacillus subtilis KCTC 1021
[20] = tested on: Pseudomonas aeruginosa CCARM 2002
[21] = tested on: Acinetobacter baumannii CCARM 12035
[22] = tested on: Salmonella typhimurium CCARM 8009
[23] = tested on: Salmonella typhimurium CCARM 8003
[24] = tested on: Staphylococcus epidermidis KCTC 1917
[25] = tested on: Salmonella typhimurium KCTC 1926
[26] = tested on: Bacillus subtilis KCTC 3068
[27] = tested on: Staphylococcus aureus CCARM 3089
[28] = tested on: Escherichia coli CCARM 1238
[29] = tested on: Escherichia coli KCTC 2593
[30] = tested on: Pseudomonas aeruginosa KCTC 2004
[31] = tested on: Salmonella typhimurium CCARM 8007
[32] = tested on: Bacillus subtilis KCTC 1022
[33] = tested on: Serratia marcescens ATCC 8100
Escherichia coli ML-35 = tested on: Escherichia coli ML-35
[34] = tested on: Staphylococcus aureus ATCC 25923
[35] = tested on: Salmonella enterica subsp. enterica serovar Typhimurium ATCC 14028
[36] = tested on: Escherichia coli ATCC 25922

Structure (SMILES) | MIC [1] | MIC [2] | MIC [3] | MIC [4] | MIC [5] | MIC [6] | MIC [7] | MIC [8] | MIC [9] | MIC [10] | MIC [11] | MIC [12] | MIC [13] | MIC [14] | MIC [15] | MIC [16] | MIC [17] | MIC [18] | MIC [19] | MIC [20] | further results
CC[C@H](C)[C@H](NC(=O)CNC(=O)[C@H](CCCN=C(N)N)NC(=O)[C@H](C)NC(=O)[C@@H](NC(=O)[C@H](Cc1cnc[nH]1)NC(=O)[C@H](Cc1cnc[nH]1)NC(=O)[C@H](Cc1ccccc1)NC(=O)[C@@H](N)Cc1ccccc1)[C@@H](C)CC)C(=O)N[C@H](C(=O)N[C@@H](Cc1cnc[nH]1)C(=O)N[C@H](C(=O)NCC(=O)N[C@@H](CCCCN)C(=O)N[C@H](C(=O)N[C@H](C(=O)N[C@@H](Cc1cnc[nH]1)C(=O)N[C@@H](CCCN=C(N)N)C(=O)N[C@@H](CC(C)C)C(=O)N[C@H](C(=O)N[C@H](C(=O)NCC(=O)O)[C@@H](C)O)C(C)C)[C@@H](C)CC)[C@@H](C)O)C(C)C)C(C)C [FFHHIARGIVHVGKTIHRLVTG] | 2 µM (≈ 4.99 µg/mL) | 16 µM (≈ 39.9 µg/mL) | 4 µM (≈ 9.98 µg/mL) | 2 µM (≈ 4.99 µg/mL) | 4 µM (≈ 9.98 µg/mL) | 4 µM (≈ 9.98 µg/mL) | ≥ 32 µM | 4 µM (≈ 9.98 µg/mL) | 16 µM (≈ 39.9 µg/mL) | ≥ 32 µM | 4 µM (≈ 9.98 µg/mL) | 4 µM (≈ 9.98 µg/mL) | 16 µM (≈ 39.9 µg/mL) | 16 µM (≈ 39.9 µg/mL) | 4 µM (≈ 9.98 µg/mL) | 4 µM (≈ 9.98 µg/mL) | 4 µM (≈ 9.98 µg/mL) | 4 µM (≈ 9.98 µg/mL) | 16 µM (≈ 39.9 µg/mL) | 4 µM (≈ 9.98 µg/mL) | MIC [21]: 4 µM (≈ 9.98 µg/mL); MIC [22]: 16 µM (≈ 39.9 µg/mL); MIC [23]: ≥ 32 µM; MIC [24]: 4 µM (≈ 9.98 µg/mL); MIC [25]: 16 µM (≈ 39.9 µg/mL); MIC [26]: 4 µM (≈ 9.98 µg/mL); MIC [27]: ≥ 32 µM; MIC [28]: ≥ 32 µM; MIC [29]: 2 µM (≈ 4.99 µg/mL); MIC [30]: 8 µM (≈ 20 µg/mL); MIC [31]: 16 µM (≈ 39.9 µg/mL); MIC [32]: 2 µM (≈ 4.99 µg/mL)
CC[C@H](C)[C@H](NC(=O)CNC(=O)[C@H](CCCN=C(N)N)NC(=O)[C@H](Cc1ccccc1)NC(=O)[C@@H](NC(=O)[C@H](Cc1cnc[nH]1)NC(=O)[C@H](Cc1cnc[nH]1)NC(=O)[C@H](CCCCN)NC(=O)[C@@H](N)Cc1ccccc1)[C@@H](C)CC)C(=O)N[C@H](C(=O)N[C@@H](Cc1cnc[nH]1)C(=O)N[C@H](C(=O)NCC(=O)N[C@@H](CCCCN)C(=O)N[C@H](C(=O)N[C@H](C(=O)N[C@@H](Cc1cnc[nH]1)C(=O)N[C@@H](CCCN=C(N)N)C(=O)N[C@@H](CC(C)C)C(=O)N[C@H](C(=O)N[C@H](C(=O)NCC(=O)O)[C@@H](C)O)C(C)C)[C@@H](C)CC)[C@@H](C)O)C(C)C)C(C)C [FKHHIFRGIVHVGKTIHRLVTG] | 2 µM (≈ 5.11 µg/mL) | 16 µM (≈ 40.8 µg/mL) | 2 µM (≈ 5.11 µg/mL) | 4 µM (≈ 10.2 µg/mL) | 2 µM (≈ 5.11 µg/mL) | 2 µM (≈ 5.11 µg/mL) | 16 µM (≈ 40.8 µg/mL) | 2 µM (≈ 5.11 µg/mL) | 16 µM (≈ 40.8 µg/mL) | 16 µM (≈ 40.8 µg/mL) | 2 µM (≈ 5.11 µg/mL) | 4 µM (≈ 10.2 µg/mL) | 8 µM (≈ 20.4 µg/mL) | 16 µM (≈ 40.8 µg/mL) | 2 µM (≈ 5.11 µg/mL) | 4 µM (≈ 10.2 µg/mL) | 2 µM (≈ 5.11 µg/mL) | 2 µM (≈ 5.11 µg/mL) | 4 µM (≈ 10.2 µg/mL) | 2 µM (≈ 5.11 µg/mL) | MIC [21]: 2 µM (≈ 5.11 µg/mL); MIC [22]: 16 µM (≈ 40.8 µg/mL); MIC [23]: 16 µM (≈ 40.8 µg/mL); MIC [24]: 2 µM (≈ 5.11 µg/mL); MIC [25]: 8 µM (≈ 20.4 µg/mL); MIC [26]: 4 µM (≈ 10.2 µg/mL); MIC [27]: 16 µM (≈ 40.8 µg/mL); MIC [28]: 16 µM (≈ 40.8 µg/mL); MIC [29]: 2 µM (≈ 5.11 µg/mL); MIC [30]: 8 µM (≈ 20.4 µg/mL); MIC [31]: 16 µM (≈ 40.8 µg/mL); MIC [32]: 1 µM (≈ 2.55 µg/mL)
CC[C@H](C)[C@H](NC(=O)CNC(=O)[C@H](CCCN=C(N)N)NC(=O)[C@H](Cc1ccccc1)NC(=O)[C@@H](NC(=O)[C@H](Cc1cnc[nH]1)NC(=O)[C@H](Cc1cnc[nH]1)NC(=O)[C@H](Cc1ccccc1)NC(=O)[C@@H](N)CCCCN)[C@@H](C)CC)C(=O)N[C@@H](CCCCN)C(=O)N[C@@H](Cc1cnc[nH]1)C(=O)N[C@H](C(=O)NCC(=O)N[C@@H](CCCCN)C(=O)N[C@H](C(=O)N[C@H](C(=O)N[C@@H](Cc1cnc[nH]1)C(=O)N[C@@H](CCCN=C(N)N)C(=O)N[C@@H](CC(C)C)C(=O)N[C@H](C(=O)N[C@H](C(=O)NCC(=O)O)[C@@H](C)O)C(C)C)[C@@H](C)CC)[C@@H](C)O)C(C)C [KFHHIFRGIKHVGKTIHRLVTG] | 2 µM (≈ 5.16 µg/mL) | 4 µM (≈ 10.3 µg/mL) | 2 µM (≈ 5.16 µg/mL) | 1 µM (≈ 2.58 µg/mL) | 2 µM (≈ 5.16 µg/mL) | 2 µM (≈ 5.16 µg/mL) | 4 µM (≈ 10.3 µg/mL) | 2 µM (≈ 5.16 µg/mL) | 4 µM (≈ 10.3 µg/mL) | 4 µM (≈ 10.3 µg/mL) | 2 µM (≈ 5.16 µg/mL) | 1 µM (≈ 2.58 µg/mL) | 2 µM (≈ 5.16 µg/mL) | 8 µM (≈ 20.7 µg/mL) | 2 µM (≈ 5.16 µg/mL) | 2 µM (≈ 5.16 µg/mL) | 2 µM (≈ 5.16 µg/mL) | 2 µM (≈ 5.16 µg/mL) | 4 µM (≈ 10.3 µg/mL) | 2 µM (≈ 5.16 µg/mL) | MIC [21]: 2 µM (≈ 5.16 µg/mL); MIC [22]: 8 µM (≈ 20.7 µg/mL); MIC [23]: 8 µM (≈ 20.7 µg/mL); MIC [24]: 1 µM (≈ 2.58 µg/mL); MIC [25]: 1 µM (≈ 2.58 µg/mL); MIC [26]: 1 µM (≈ 2.58 µg/mL); MIC [27]: 4 µM (≈ 10.3 µg/mL); MIC [28]: 4 µM (≈ 10.3 µg/mL); MIC [29]: 2 µM (≈ 5.16 µg/mL); MIC [30]: 2 µM (≈ 5.16 µg/mL); MIC [31]: 8 µM (≈ 20.7 µg/mL); MIC [32]: 2 µM (≈ 5.16 µg/mL)
CC[C@H](C)[C@H](NC(=O)[C@@H]1CCCN1C(=O)[C@H](CCCN=C(N)N)NC(=O)[C@@H]1CCCN1C(=O)CNC(=O)[C@@H]1CCCN1C(=O)[C@H](CCCN=C(N)N)NC(=O)[C@@H]1CCCN1C(=O)[C@H](Cc1ccccc1)NC(=O)[C@@H]1CCCN1C(=O)[C@H](CC(C)C)NC(=O)[C@@H]1CCCN1C(=O)[C@H](CCCN=C(N)N)NC(=O)[C@@H]1CCCN1)C(=O)O [PRPLPFPRPGPRPI] | – | – | – | – | – | – | – | – | – | – | – | – | – | – | – | – | – | – | – | – | MIC [33]: ≥ 128 µM; MIC (Escherichia coli ML-35): ≥ 128 µM; MIC [34]: > 128 µM; MIC [35]: > 128 µM; MIC [36]: > 128 µM
